This is an account of results in ChEMBL document CHEMBL1201862, “PubChem BioAssay data set” (2004).

Test systems include TK-10; MOLT-4; IGROV-1; NCI/ADR-RES; 786-0; SK-MEL-5; Malme-3M; M14; A549; NCI-H522; RPMI-8226; HCT-116; SK-MEL-28; OVCAR-3; NCI-H226; LOX IMVI; BT-549; HCT-15; Hs-578T; SF-539.
Holding throughout (experiment): growth of human tumour cells (NCI), 48 h

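All cell lines were grown in 96-well plates and treated with compound for 48 hours. GI50: concentration for 50% inhibition of growth.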 Calls of active or inactive are those of the source. Rule as the data show it: active = GI50 up to about 1.1 µM and inactive = higher.

Regarding `OC(Cc1ccccc1)(Cc1ccccc1)c1ccccc1`, the GI50 in the assay on TK-10 was 19.8 µM (inactive); in the assay with MOLT-4 it was 24.6 µM (inactive); in the assay with IGROV-1, 16.3 µM (inactive); in the assay with NCI/ADR-RES, 23 µM (inactive); with 786-0, 15.2 µM (inactive); with SK-MEL-5, 18 µM (inactive). Besides, the GI50 with Malme-3M was 13.1 µM (inactive); with M14, 17.7 µM (inactive); with A549 it was 19.5 µM (inactive); in the assay on NCI-H522, 14.7 µM (inactive); in the assay with RPMI-8226, 29.3 µM (inactive); with HCT-116 it was 16.2 µM (inactive). Also, the GI50 was 21.9 µM (inactive) in the assay with SK-MEL-28; 18.2 µM (inactive) in the assay on OVCAR-3; 18.4 µM (inactive) in the assay with NCI-H226; 18.3 µM (inactive) in the assay with LOX IMVI; 18.7 µM (inactive) in the assay with BT-549; 20.5 µM in the assay with HCT-15.
Turning to `CC1(C)CC(=O)C(=CNC(=O)c2ccncc2)C(=O)C1`, the GI50 in the assay on TK-10, in the assay on MOLT-4, in the assay with IGROV-1, with NCI/ADR-RES, in the assay with 786-0 and with SK-MEL-5 was > 100 µM (inactive) each time. Also, the GI50 in the assay with M14, with A549, in the assay on NCI-H522, in the assay on HCT-116, with Hs-578T and in the assay with SK-MEL-28 was > 100 µM (inactive) in each case. Further, the GI50 in the assay on SF-539 is > 100 µM (inactive); in the assay on OVCAR-3 it was > 100 µM (inactive); with NCI-H226 it was > 100 µM (inactive); in the assay on LOX IMVI, > 100 µM (inactive); in the assay with BT-549 it was > 100 µM (inactive); in the assay on HCT-15, more than 100 µM.
Regarding `COC1/C=C/O[C@@]2(C)Oc3c(C)c(O)c4c(O)c(cc(O)c4c3C2=O)NC(=O)/C(C)=C\C=C\[C@H](C)C(O)[C@@H](C)[C@@H](O)[C@@H](C)[C@H](OC(C)=O)[C@@H]1C` (some centres not stated), the GI50 with TK-10 is 20.1 µM (inactive); in the assay on MOLT-4, 6.31 µM (inactive); with IGROV-1, 22.7 µM (inactive); in the assay on NCI/ADR-RES, 32.4 µM (inactive); with 786-0 it was 15.2 µM (inactive); with SK-MEL-5, 32.1 µM (inactive). Further, the GI50 is 30.6 µM (inactive) in the assay with Malme-3M; 16.1 µM (inactive) in the assay on M14; 5.3 µM (inactive) in the assay with NCI-H522; 33 µM (inactive) in the assay with Hs-578T; 22.5 µM (inactive) in the assay with SK-MEL-28; 25.9 µM (inactive) in the assay with SF-539. For the same compound, the GI50 with LOX IMVI is 14 µM (inactive); with BT-549 it was 18.5 µM (inactive); with HCT-15, 18.6 µM.
Regarding `O=C(N/N=C/c1ccc(O)cc1)NNCCO`, the GI50 in the assay with TK-10, in the assay with MOLT-4, with IGROV-1, in the assay with NCI/ADR-RES, in the assay on 786-0 and in the assay on SK-MEL-5 was > 100 µM (inactive) throughout. Further, the GI50 with Malme-3M, with M14, in the assay with A549, in the assay on NCI-H522, with HCT-116 and with Hs-578T was > 100 µM (inactive) in each case. The GI50 was > 100 µM (inactive) in the assay on SK-MEL-28; > 100 µM (inactive) in the assay with SF-539; > 100 µM (inactive) in the assay on OVCAR-3; > 100 µM (inactive) in the assay with NCI-H226; > 100 µM (inactive) in the assay with BT-549; more than 100 µM with HCT-15.
In the case of `O=C1O/C(=C\C=C\CO)C=C1/C=C/CO` [LISSOCLINOLIDE], the GI50 was 19.1 µM (inactive) in the assay with TK-10; 50.6 µM (inactive) in the assay with MOLT-4; 16 µM (inactive) in the assay with IGROV-1; 33.3 µM (inactive) with NCI/ADR-RES; 12.5 µM (inactive) in the assay with 786-0; 22.1 µM (inactive) in the assay with SK-MEL-5. Moreover, the GI50 with Malme-3M was 13.8 µM (inactive); in the assay with M14, 20.2 µM (inactive); in the assay with A549, 36.4 µM (inactive); in the assay on NCI-H522 it was 10.3 µM (inactive); in the assay on RPMI-8226 it was 16.4 µM (inactive); in the assay on HCT-116, 14 µM (inactive). In addition, the GI50 in the assay on SK-MEL-28 is 24.4 µM (inactive); in the assay on SF-539, 24.1 µM (inactive); in the assay with OVCAR-3, 24.2 µM (inactive); with NCI-H226, 36.5 µM (inactive); in the assay with LOX IMVI it was 35.6 µM (inactive); in the assay with BT-549, 20 µM (inactive). The same compound had a GI50 in the assay with HCT-15 of 12.3 µM.
With `O=C1/C(=C/c2ccccc2)CN(C(=O)OCc2ccccc2)C/C1=C\c1ccccc1`, the GI50 is 27.5 µM (inactive) in the assay on TK-10; 2.76 µM (inactive) in the assay on MOLT-4; 14.1 µM (inactive) in the assay with IGROV-1; 11.5 µM (inactive) in the assay with 786-0; 16.8 µM (inactive) with SK-MEL-5; 30.4 µM (inactive) in the assay with Malme-3M. In addition, the GI50 is 8.07 µM (inactive) with M14; 28.1 µM (inactive) in the assay with A549; 6.76 µM (inactive) with NCI-H522; 0.345 µM (active) in the assay with HCT-116; 2.47 µM (inactive) in the assay on Hs-578T; 11.5 µM (inactive) with SK-MEL-28. Further, the GI50 in the assay on SF-539 is 18.3 µM (inactive); with OVCAR-3, 1.68 µM (inactive); in the assay on NCI-H226 it was 26.2 µM (inactive); in the assay on LOX IMVI, 4.76 µM (inactive); in the assay with BT-549, 13.2 µM (inactive); with HCT-15, 10.9 µM.
Consider `N#Cc1cnc(-n2[nH]c3c(c2=O)CCCC3)[nH]c1=O`, for which the GI50 in the assay with TK-10 was 51.5 µM (inactive); in the assay with MOLT-4 it was 44.5 µM (inactive); in the assay with IGROV-1 it was > 100 µM (inactive); in the assay with 786-0, 49.2 µM (inactive); in the assay on SK-MEL-5 it was 48.1 µM (inactive); in the assay with Malme-3M, 50 µM (inactive). Moreover, the GI50 in the assay on M14 was 38.1 µM (inactive); in the assay on A549 it was 38.5 µM (inactive); in the assay with NCI-H522 it was 57.3 µM (inactive); with RPMI-8226 it was 88.3 µM (inactive); in the assay on HCT-116, 38 µM (inactive); with Hs-578T, > 100 µM (inactive). For the same compound, the GI50 in the assay on SK-MEL-28 was 55.2 µM (inactive); in the assay on SF-539 it was 43.9 µM (inactive); in the assay on NCI-H226 it was 47.8 µM (inactive); with BT-549, 73.5 µM (inactive); with HCT-15, 41.1 µM.
As to `CCOC(=O)N/N=C(\Cc1ccccc1)OCC`, the GI50 with TK-10, in the assay with MOLT-4, in the assay on IGROV-1, in the assay with NCI/ADR-RES, in the assay on 786-0 and in the assay on SK-MEL-5 was > 100 µM (inactive) each time. Besides, the GI50 in the assay on M14, with A549, in the assay with NCI-H522, in the assay on RPMI-8226, in the assay with HCT-116 and in the assay with SF-539 was > 100 µM (inactive) in each case. The GI50 was > 100 µM (inactive) with OVCAR-3, > 100 µM (inactive) with LOX IMVI, > 100 µM (inactive) in the assay with BT-549 and more than 100 µM in the assay on HCT-15.
On to `CC(=O)OCc1nc(C#N)c(N)o1`, for which the GI50 in the assay with TK-10, in the assay with MOLT-4, in the assay with IGROV-1, in the assay on 786-0, with SK-MEL-5 and with Malme-3M was > 100 µM (inactive) throughout. Moreover, the GI50 in the assay with NCI-H522, with RPMI-8226, in the assay on HCT-116, in the assay on Hs-578T, in the assay on SK-MEL-28 and in the assay with OVCAR-3 was > 100 µM (inactive) throughout. For the same compound, the GI50 was > 100 µM (inactive) in the assay on NCI-H226, > 100 µM (inactive) in the assay on LOX IMVI, > 100 µM (inactive) in the assay on BT-549 and more than 100 µM with HCT-15.
For `CC(C)C1OC(=O)C=C1Sc1ccccc1` (configuration not stated), the GI50 with TK-10 was > 100 µM (inactive); with MOLT-4, > 100 µM (inactive); in the assay with IGROV-1, > 100 µM (inactive); with 786-0 it was > 100 µM (inactive); in the assay on SK-MEL-5 it was > 100 µM (inactive); with Malme-3M, 80.7 µM (inactive). Also, the GI50 in the assay on M14, in the assay on A549, in the assay on NCI-H522, in the assay with RPMI-8226, in the assay with HCT-116 and in the assay with Hs-578T was > 100 µM (inactive) throughout. For the same compound, the GI50 with SK-MEL-28, in the assay with SF-539, in the assay with OVCAR-3, in the assay with NCI-H226, in the assay with LOX IMVI and in the assay on BT-549 was > 100 µM (inactive) throughout. The compound further had a GI50 with HCT-15 of more than 100 µM.
For the compound `COc1cccc(/C=C2/Sc3scc(-c4ccccc4)[n+]3C2=O)c1O`, the GI50 with TK-10 was 31 µM (inactive); in the assay with MOLT-4 it was 16.1 µM (inactive); in the assay on IGROV-1, 15.2 µM (inactive); with NCI/ADR-RES, 17.7 µM (inactive); with 786-0, 15.2 µM (inactive); in the assay with SK-MEL-5, 14.4 µM (inactive). Further, the GI50 with M14 is 26 µM (inactive); with A549, 38.8 µM (inactive); with NCI-H522 it was 18.8 µM (inactive); in the assay on HCT-116, 14.9 µM (inactive); in the assay on Hs-578T it was 42.7 µM (inactive); with SK-MEL-28, 17.3 µM (inactive). Also, the GI50 was 16.1 µM (inactive) in the assay on SF-539; 26.6 µM (inactive) with OVCAR-3; 19.4 µM (inactive) in the assay on NCI-H226; 16.2 µM (inactive) with LOX IMVI; 21.7 µM (inactive) with BT-549; 13.6 µM in the assay with HCT-15.
